Like-named read-outs stand apart in the source and are kept apart here.
Experiments:
[1] = test system: human mononucleocytes (PBMC) stimulated with staphylococcal enterotoxin B (SEB); assay: cells; assay type: cell-based
LFA-1 = LFA-1 (Homo sapiens, UniProt P20701); settings: Lu et al. 2004; cited from earlier work
LFA-1, sequence (P20701 26-1170): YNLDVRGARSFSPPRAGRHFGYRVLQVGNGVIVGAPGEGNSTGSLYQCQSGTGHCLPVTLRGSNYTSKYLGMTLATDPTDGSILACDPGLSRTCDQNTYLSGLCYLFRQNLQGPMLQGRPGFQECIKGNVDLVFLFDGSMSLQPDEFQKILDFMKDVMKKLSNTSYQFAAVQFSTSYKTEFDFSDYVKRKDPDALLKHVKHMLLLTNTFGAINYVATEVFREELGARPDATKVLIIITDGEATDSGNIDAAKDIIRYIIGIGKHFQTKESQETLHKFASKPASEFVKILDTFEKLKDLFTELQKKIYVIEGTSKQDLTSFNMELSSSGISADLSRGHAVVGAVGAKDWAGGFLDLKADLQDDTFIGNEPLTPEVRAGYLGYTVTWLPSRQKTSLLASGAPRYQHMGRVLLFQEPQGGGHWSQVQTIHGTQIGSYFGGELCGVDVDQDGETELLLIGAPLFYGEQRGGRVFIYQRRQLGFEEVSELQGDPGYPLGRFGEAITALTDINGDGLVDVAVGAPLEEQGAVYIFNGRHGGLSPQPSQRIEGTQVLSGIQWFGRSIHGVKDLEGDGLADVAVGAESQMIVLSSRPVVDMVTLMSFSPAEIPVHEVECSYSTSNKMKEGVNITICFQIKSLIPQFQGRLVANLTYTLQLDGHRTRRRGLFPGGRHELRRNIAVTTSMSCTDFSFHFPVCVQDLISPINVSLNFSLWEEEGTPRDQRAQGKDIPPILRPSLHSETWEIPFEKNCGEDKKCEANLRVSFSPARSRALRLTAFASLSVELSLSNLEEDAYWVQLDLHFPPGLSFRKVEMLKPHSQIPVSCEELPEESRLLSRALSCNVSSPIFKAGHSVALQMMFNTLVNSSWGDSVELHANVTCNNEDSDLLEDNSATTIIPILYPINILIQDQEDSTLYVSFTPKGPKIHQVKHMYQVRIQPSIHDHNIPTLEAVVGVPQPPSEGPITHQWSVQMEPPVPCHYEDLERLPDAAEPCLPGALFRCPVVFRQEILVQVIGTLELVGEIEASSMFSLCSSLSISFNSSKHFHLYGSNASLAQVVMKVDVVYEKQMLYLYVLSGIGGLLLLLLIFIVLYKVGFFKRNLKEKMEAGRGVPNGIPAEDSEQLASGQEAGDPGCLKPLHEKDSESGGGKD
LFA-1, sequence (P05107 23-769 partner): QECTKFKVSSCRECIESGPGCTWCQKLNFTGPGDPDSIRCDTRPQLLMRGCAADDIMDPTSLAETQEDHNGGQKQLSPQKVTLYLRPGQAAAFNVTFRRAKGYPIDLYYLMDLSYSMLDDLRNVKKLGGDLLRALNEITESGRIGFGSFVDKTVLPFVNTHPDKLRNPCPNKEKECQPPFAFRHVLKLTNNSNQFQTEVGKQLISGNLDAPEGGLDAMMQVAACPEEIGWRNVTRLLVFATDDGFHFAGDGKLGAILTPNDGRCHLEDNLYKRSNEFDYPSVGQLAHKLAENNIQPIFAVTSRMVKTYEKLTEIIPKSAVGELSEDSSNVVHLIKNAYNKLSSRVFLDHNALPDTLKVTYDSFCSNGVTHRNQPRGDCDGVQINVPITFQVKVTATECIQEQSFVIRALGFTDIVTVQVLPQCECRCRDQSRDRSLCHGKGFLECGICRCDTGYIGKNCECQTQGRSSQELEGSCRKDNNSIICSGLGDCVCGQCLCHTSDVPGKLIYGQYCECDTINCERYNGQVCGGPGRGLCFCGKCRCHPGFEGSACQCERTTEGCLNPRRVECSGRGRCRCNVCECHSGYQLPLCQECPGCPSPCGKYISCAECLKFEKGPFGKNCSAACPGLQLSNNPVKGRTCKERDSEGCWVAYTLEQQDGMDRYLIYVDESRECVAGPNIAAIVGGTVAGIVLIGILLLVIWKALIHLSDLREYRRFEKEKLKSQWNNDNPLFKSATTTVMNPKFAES

Compound	EC50 ([1]; read-out: EC50 Cytokine Release GM-CSF) [mM]	EC50 ([1]; read-out: EC50 Cytokine Release IFNγ) [mM]	EC50 ([1]; read-out: EC50 Cytokine Release IL-1α) [mM]	EC50 ([1]; read-out: EC50 Cytokine Release IL-1β) [mM]	EC50 ([1]; read-out: EC50 Cytokine Release IL-2) [mM]	EC50 ([1]; read-out: EC50 Cytokine Release IL-3) [mM]	EC50 ([1]; read-out: EC50 Cytokine Release IL-4) [mM]	EC50 ([1]; read-out: EC50 Cytokine Release IL-5) [mM]	EC50 ([1]; read-out: EC50 Cytokine Release IL-6) [mM]	EC50 ([1]; read-out: EC50 Cytokine Release IL-10) [mM]	EC50 ([1]; read-out: EC50 Cytokine Release IL-12p40) [mM]	EC50 ([1]; read-out: EC50 Cytokine Release IL-13) [mM]	EC50 ([1]; read-out: EC50 Cytokine Release IP-10) [mM]	EC50 ([1]; read-out: EC50 Cytokine Release MCP-1) [mM]	EC50 ([1]; read-out: EC50 Cytokine Release MIP-1α) [mM]	EC50 ([1]; read-out: EC50 Cytokine Release TNF-α) [mM]	Mode of antagonism of LFA-1 (LFA-1)
O=C(NC(Cc1cc(=O)[nH]c2ccccc12)C(=O)O)c1ccc(Cl)cc1 (centres unmarked) [Rebamipide]	> 1	> 1	> 1	> 1	> 1	> 1	> 1	> 1	> 1	> 1	> 1	> 1	> 1	> 1	> 1	> 1	
efalizumab: antibody directed against LFA-1																	directly competitive antagonist of LFA-1

Source: US10960087B2, “Compositions and methods for treatment of diabetic retinopathy” (NOVARTIS AG, priority 2007, dated 2021)
